Source: patent US4649145A, “Thiazole derivatives” (Hoechst UK Limited, priority 1982, dated 1987)

tested on: gastric acid secretion in the perfused rat stomach; assay: antisecretory activity in the perfused rat stomach (inhibition of histamine- or pentagastrin-stimulated gastric acid secretion); type: in vivo; settings: Rattus norvegicus, iv, read-out: ID50 (amount of compound required to inhibit the stimulated secretion by 50%)
Experimental: Compounds of this invention were tested for antisecretory activity in the perfused rat stomach. The method of Ghosh and Schild, Brit. […] J. […] After the secretion plateau was reached, the test compound was administered i.v. and the amount of compound required to inhibit the stimulated secretion by 50% was determined.

SMILES | ED50 [mg/kg]
CN/C(=N/CCSCc1nc[nH]c1C)NC#N [Cimetidine, N--cyanoN'--methylN"--{2[(4methyl-5-imidazolyl)methyl-thio]ethyl}guanidin, reference compound] | 2.5

same assay, conditions: iv; perfused rat stomach; i.v.; acid secretion stimulated by infusing either histamine or pentagastrin at a constant rate; read-out: ID50 (amount of compound required to inhibit the stimulated secretion by 50%)

SMILES | ED50 [mg/kg]
NC(N)=Nc1nc(CSCCNC2=NC(=O)CN2)cs1 [Compound 64] | 0.45
CC1NC(NCCSCc2csc(N=C(N)N)n2)=NC1=O (centres unmarked) [Compound 65] | 0.7
CCCCC1NC(NCCSCc2csc(N=C(N)N)n2)=NC1=O (centres unmarked) [Compound 69] | 0.15
CCC(C)C1NC(NCCSCc2csc(N=C(N)N)n2)=NC1=O (centres unmarked) [Compound 70] | 1.5
CC(C)CC1NC(NCCSCc2csc(N=C(N)N)n2)=NC1=O (centres unmarked) [Compound 71] | 0.2
CCCCCCC1NC(NCCSCc2csc(N=C(N)N)n2)=NC1=O (centres unmarked) [Compound 72] | 0.16
NC(N)=Nc1nc(CSCCNC2=NC(=O)C(Cc3ccccc3)N2)cs1 (centres unmarked) [Compound 74] | 2.5
NC(N)=Nc1nc(CSCCNC2=NC(=O)C(c3ccccc3)(c3ccccc3)N2)cs1 [Compound 77] | 0.5
CC1(C)NC(NCCSCc2csc(N=C(N)N)n2)=NC1=O [Compound 78] | 1
NC(N)=Nc1nc(CSCCNC2=NC(=O)C(=Cc3ccccc3)N2)cs1 [Compound 80] | 0.5
COc1ccc(C=C2NC(NCCSCc3csc(N=C(N)N)n3)=NC2=O)cc1 [Compound 81] | 1.2
NC(N)=Nc1nc(CSCCNC2=NC(=O)C(=Cc3ccc([N+](=O)[O-])cc3)N2)cs1 [Compound 82] | 0.6
NC(N)=Nc1nc(CSCCNC2=NC(=O)C(=Cc3ccc(C(F)(F)F)cc3)N2)cs1 [Compound 83] | 3.5
NC(N)=Nc1nc(CSCCNC2=NC(=O)C(=Cc3ccco3)N2)cs1 [Compound 85] | 0.2
NC(N)=Nc1nc(CSCCNC2=NC(=O)C(=CC=Cc3ccco3)N2)cs1 [Compound 86] | 0.02
CC=C1NC(NCCSCc2csc(N=C(N)N)n2)=NC1=O [Compound 87] | 0.1
CCCC=C1NC(NCCSCc2csc(N=C(N)N)n2)=NC1=O [Compound 88] | 0.1
CCCCCC=C1NC(NCCSCc2csc(N=C(N)N)n2)=NC1=O [Compound 89] | 0.15
NC(N)=Nc1nc(CSCCNC2=NC(=O)C(=C3CCCCC3)N2)cs1 [Compound 90] | 0.18
CC(C)=C1NC(NCCSCc2csc(N=C(N)N)n2)=NC1=O [Compound 91] | 0.18
CC(C)C=C1NC(NCCSCc2csc(N=C(N)N)n2)=NC1=O [Compound 92] | 0.07
CCC(C)C=C1NC(NCCSCc2csc(N=C(N)N)n2)=NC1=O (centres unmarked) [Compound 93] | 0.07
CCCCC=C1NC(NCCSCc2csc(N=C(N)N)n2)=NC1=O [Compound 94] | 0.06
NC(N)=Nc1nc(CSCCNC2=NC(=O)C(=Cc3cccc(Oc4ccccc4)c3)N2)cs1 [Compound 96, 2[2-[(2-Guanidino-4-thiazolyl)]methylthio]ethylamino-5-(3-phenoxybenzylidenyl)-imidazolidin-4-one] | 10
NC(N)=Nc1nc(CSCCNC2=NC(=O)C(=Cc3cccnc3)N2)cs1 [Compound 97] | 0.5
